Measured values taken from PMC9995496, “A screen for MeCP2-TBL1 interaction inhibitors using a luminescence-based assay” (Scientific Reports, 2023).
Where a name gives a salt, the structure may show the parent alone. Read-outs that look alike come from different tables or passages of the source. Ends that are not written are not given here. * marks the point of attachment. Biotin = O=C1N[C@H]2[C@H](CS[C@H]2CCCCC(=O)*)N1

Key:
[1] = target: T1, MeCP2-TBL1 interaction (MeCP2-SmBiT / TBL1-LgBiT) (Mus musculus, UniProt Q9QXE7); assay: MeCP2-TBL1 NanoLuc luciferase complementation assay (cell-free, extracts of transfected HEK293 cells); format: binding, human
T1 construct: expressed in transfected cells; crude lysate used as a cell-free assay
T1 sequence (Q9QXE7 166-527): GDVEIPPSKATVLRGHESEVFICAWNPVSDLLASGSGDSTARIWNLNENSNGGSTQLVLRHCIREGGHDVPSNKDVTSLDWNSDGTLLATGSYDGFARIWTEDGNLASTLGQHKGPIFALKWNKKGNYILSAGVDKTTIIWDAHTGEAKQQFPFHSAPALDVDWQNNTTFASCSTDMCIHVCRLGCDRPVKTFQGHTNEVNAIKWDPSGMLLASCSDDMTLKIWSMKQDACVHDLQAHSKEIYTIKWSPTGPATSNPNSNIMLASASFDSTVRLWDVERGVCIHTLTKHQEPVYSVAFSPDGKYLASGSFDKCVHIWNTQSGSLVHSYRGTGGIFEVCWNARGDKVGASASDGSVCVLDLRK
Source text: To facilitate the discovery of inhibitors of the interaction between MeCP2 and TBL1/TBLR1, we set out to devise a simple and scalable biochemical assay for measuring the interaction between these two proteins. We initially explored the possibility of screening compound libraries using a previously established fluorescence polarization assay that depends on purified recombinant TBL1/TBLR1[26]. […] The resulting luminescence signal depends on the affinity between the two interacting proteins of interest (Fig. 1A). This method was originally developed to allow for the interrogation of protein–protein interactions in vivo. However, in order to facilitate large scale screening of chemical libraries, we adapted the assay for use as a cell-free system.
We fused the large N-terminal fragment of NanoLuc (LgBiT) to the C-terminus of the WD repeat domains of both TBL1 and TBLR1, and the small C-terminal fragment of NanoLuc (SmBiT) to the C-terminus of the C-terminal half of MeCP2 (Fig. 1B and C). This region of MeCP2 contains the NID (NCoR interaction domain)—the motif in MeCP2 that binds to TBL1/TBLR1.
The AgeI-NotI restriction fragment (encoding EGFP) was then replaced with a codon optimized SmBiT sequence to yield the MeCP2-SmBiT expression plasmid. The TBL1-LgBiT expression vector was derived from a TBL1-mCherry plasmid[25] by replacing the AgeI-NotI restriction fragment (encoding mCherry) with a codon optimized LgBiT sequence. SmBiT-PRKACA and LgBiT-PRKAR2A plasmids are commercially available (Promega, N203 and N204).
Cells were harvested after 24 h and cell pellets were stored at − 80 °C.
In the screens described here, the lysate obtained from a single 15 cm plate was used for 2.5 384-well assay plates. NanoLuc substrate (furimazine) (Promega, N1110) was diluted 1000-fold in passive lysis buffer (Promega, E1941) and added 1:1 to the lysate. Screening libraries were purchased from Asinex[40] and ApexBio (FDA-approved Drug Library, L1021). Compounds were dispensed using an Echo acoustic dispenser and tested at a final concentration of 20 µM in a total assay volume of 20 μl in 384-well plate format. DMSO was added to each well at a final concentration of 0.2% (v/v) and wells containing only DMSO were used as negative control. After 30 min incubation at room temperature, luminescence was measured on a Tecan M1000 multi-mode plate reader. Raw luminescence reads from each well on each plate were normalized to the median luminescence signal for that plate. In the ApexBio screen, the scaled and normalized PKA signal for each compound was subtracted from the MeCP2-TBL1 signal for the same compound. After plate normalization the robust SSMD (SSMD*) was calculated as described elsewhere. A threshold of SSMD* ≥ 3 was applied for discerning primary hits.
Assays were performed as described above except instead of a single concentration, a threefold serial dilution ranging from 60 to 0.03 μM was tested in triplicate for each of the compounds. Half-maximal inhibitory concentrations were calculated using global nonlinear regression by fitting the response data sets of all compounds simultaneously with a four-parameter logistic curve of log inhibitor concentration versus normalized luminescence using GraphPad Prism. During fitting, the maximum and minimum curve values were shared between the data sets.

[2] = system: PRKACA-PRKAR2A interaction (SmBiT-PRKACA / LgBiT-PRKAR2A), protein kinase A; design: NanoLuc complementation counter-screen in cell extract, PRKACA with PRKAR2A, loss of luminescence, detects NanoLuc interference; conditions: 0.5 h, 20 µM, inhibitor
[3] = primary screen of the Asinex library, sheet "Sargen output Asinex library", one well per compound
[4] = primary screen of the Asinex library, sheet "Sargen output Asinex library", one well per compound, Batch Ref. 1
[5] = primary screen of Asinex library, single well per compound
[6] = counter-screen for NanoLuc interference

For “35 amino acid peptide: 35 amino acid MeCP2 wild-type NID peptide (residues 285-319), N-terminal biotin (Biotin-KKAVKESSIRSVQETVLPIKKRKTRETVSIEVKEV; UniProt P51608 285-319, looked up, fragment) [reference compound]”, the “effect of competitor peptide on MeCP2-TBL1 luminescence signal” value ([1]; peptide at 20 µM, n = 2) was “strongly inhibited”.

O=C(Cn1cccc(C(=O)NCc2ccccc2)c1=O)NC1(c2ccccc2)CCCC1 [BDB_26402348] gave an Inhibition percent [1, 3] of 2.11%.

CN(Cc1ccc2ncccc2c1)C(=O)Cn1cc(C(=O)NCc2ccccc2)ccc1=O [BDB_26410269] showed an Inhibition percent [1, 3] of -0.72%.

O=C(Cn1cc(C(=O)NC2CCCCC2)ccc1=O)NCC1(c2ccccc2Cl)CC1 [BDB_26414870] showed an Inhibition percent [1, 4] of 4.99%.

C=CCC1(CC=C)CCN1C(=O)C1(Cc2ccc(-c3cccnc3)cc2)CCOCC1 [BDC_20667788] gave an Inhibition percent [1, 4] of -1.31%.

In the case of Cc1cccc(CC(=O)N2CCC(Cc3cccc(-c4cccnc4)c3)(C(N)=O)CC2)c1 [BDC_22461702], the Inhibition percent [1, 4] is reported as -2.13%.

With CCOc1ccc(CN2CCCC2c2ncc(C(=O)NCc3ccc(F)cc3)c(C)n2)cc1 (stereo not drawn) [BDC_23170699] the Inhibition percent [1, 4] was -3.60%.

In the case of Cc1cccc(CC(=O)N2CCCCC2c2ncc(C(=O)NCc3ccccc3)c(C)n2)c1 (stereo not drawn) [BDC_23190776], the Inhibition percent [1, 4] is reported as -1.94%.

Cc1ccc(CC(=O)N2CCCC(c3ncc(C(=O)NCc4ccccc4)c(C)n3)C2)cc1 (stereo not drawn) [BDC_23198767] showed an Inhibition percent [1, 3] of -0.69%.

With COc1ccccc1NC(=O)C1CN(C(=O)COc2ccccc2)Cc2cn(C)nc21 (stereo not drawn) [BDC_23414979] the Inhibition percent [1, 4] was -4.37%.

COc1ccc(CNC(=O)c2cnc(C)nc2C2CCCCN2C(=O)c2cnccn2)cc1 (stereo not drawn) [BDC_23571437] showed an Inhibition percent [1, 3] of 0.37%.

CNC(=O)c1cnc(C)nc1C1CCCCN1CCS(=O)(=O)c1ccccc1 (stereo not drawn) [BDC_23573041] was tested, and the Inhibition percent [1, 3] was -1.44%.

In the case of Cc1ncc(C(=O)N2CCOCC2)c(C2CCCCN2C(=O)c2nccc3ccccc23)n1 (stereo not drawn) [BDC_23573125], the Inhibition percent [1, 5] is reported as -0.64.

Work on COc1ccc(C2CCCN2C(=O)Cn2cc(NC(=O)Cc3ccccc3F)cn2)cc1 (stereo not drawn) [BDC_25693383] yielded an Inhibition percent [1, 3] of -0.19%.

COc1cccc(Cc2cccc(C3CCCN(Cc4ccncc4)C3)n2)c1 (stereo not drawn) [BDC_27849507] gave an Inhibition percent [1, 5] of -4.87.

Compound COc1ccc(Cc2cccc(C3CCN(C(=O)Cc4ccc(F)cc4)CC3)n2)cc1 [BDC_27855593] has an Inhibition percent [1, 3] of 0.65%.

Compound CNc1ncccc1CN1CCCC(c2cccc(Cc3cccc(F)c3)n2)C1 (stereo not drawn) [BDC_27866586] has an Inhibition percent [1, 3] of 7.34%.

Work on CCN1C(=O)CC[C@@H](C(=O)NCCOc2ccccc2)[C@@H]1c1ccccc1F [BDC_32230426] yielded an Inhibition percent [1, 4] of 0.19%.

For COCCN1C(=O)C[C@@H](C(=O)NCc2ccccc2COC)[C@@H]1c1ccccc1 [BDC_32231307], the Inhibition percent [1, 5] was -0.68.

With O=C1CCCC[C@]2(CN(Cc3ccc(-c4ccccc4)cc3)C[C@H]2c2cc(F)cc(F)c2)N1 [BDD_20406167] the Inhibition percent [1, 4] was 4.82%.

CCN1CCN(C(=O)CCC2NC(=O)NC2=O)C(Cc2ccc(-c3ccccc3)cc2)C1=O (stereo not drawn) [BDD_21846702] was tested, and the Inhibition percent [1, 5] was -2.65.

In the case of COc1cccc(C(=O)N2CCNC(=O)C2Cc2cccc(-c3cccc(F)c3)c2)c1OC (stereo not drawn) [BDD_21847933], the Inhibition percent [1, 4] is reported as 1.68%.

With C=CCN1CCN(C(=O)Cc2cccnc2)C(Cc2ccc(-c3cccs3)cc2)C1=O (stereo not drawn) [BDD_21855492] the Inhibition percent [1, 3] was 0.61%.

Compound CCN1CCN(C(=O)Cc2ccccc2OC)C(Cc2cccc(-c3ccncc3)c2)C1=O (stereo not drawn) [BDD_21872283] has an Inhibition percent [1, 4] of -1.27%.

In the case of O=C1CC(C(=O)N2CCNC(=O)C2Cc2cccc(-c3ccccc3)c2)c2ccccc2N1 (stereo not drawn) [BDD_21879577], the Inhibition percent [1, 4] is reported as 4.73%.

CCN1CCN(C(=O)Cc2ccccc2OC)C(Cc2ccc(-c3cccnc3)cc2)C1=O (stereo not drawn) [BDD_21886831] gave an Inhibition percent [1, 4] of -2.52%.

CN(Cc1cccc(F)c1)Cc1nc(C2CC(=O)N(Cc3ccccc3)C2)cc(N(C)C)n1 (stereo not drawn) [BDD_23510085] was tested, and the Inhibition percent [1, 3] was -0.99%.

For O=C1CCC[C@]2(CN(Cc3cccc(-c4ccccc4F)c3)C[C@H]2c2ccccc2F)N1 [BDD_23570797], the Inhibition percent [1, 4] was 11.53%.

O=C1CCC[C@]2(CN(Cc3cccc(-c4ccccc4F)c3)C[C@H]2c2ccc(F)c(F)c2)N1 [BDD_23570819] was tested, and the Inhibition percent [1, 4] was 11.60%.

Compound COc1ccccc1-c1ccc(CN2C[C@@H](c3cccc(NC(C)=O)c3)[C@@]3(CCCCC(=O)N3)C2)cc1 [BDD_23570835] has an Inhibition percent [1, 4] of 5.89%.

COc1ccccc1-c1cccc(CN2C[C@@H](c3cc(F)cc(F)c3)[C@@]3(CCCCC(=O)N3)C2)c1 [BDD_23570836] gave an Inhibition percent [1, 4] of 1.23%.

Cc1ncc(C(=O)NCc2ccccc2)c(CC2CCN(C(=O)C3CCCCC3)CC2)n1 [BDD_23848427] gave an Inhibition percent [1, 4] of -4.61%.

In the case of Cc1cnc(C(=O)N2CCC(Cc3nc(C)ncc3C(=O)NCc3ccccc3)CC2)cn1 [BDD_23852576], the Inhibition percent [1, 3] is reported as 0.67%.

COCCNC(=O)c1sc2ccccc2c1C1CN(C(=O)C(C)(C)OC)CCO1 (stereo not drawn) [BDD_24015180] was tested, and the Inhibition percent [1, 4] was -2.46%.

With CN1CCC(c2c(C(=O)NCCS(=O)(=O)NC3CCCCC3)sc3ccccc23)C1 (stereo not drawn) [BDD_24044260] the Inhibition percent [1, 5] was -0.05.

In the case of NC(=O)c1cc(C2CN(C(=O)c3ccnc(N4CCCCC4)c3)CCO2)nc2ccccc12 (stereo not drawn) [BDD_24083754], the Inhibition percent [1, 4] is reported as -2.41%.

In the case of C=C1CC[C@@H]2[C@](C)(CO)[C@H](O)CC[C@@]2(C)[C@@H]1C/C=C1/C(=O)OC[C@H]1O [UM0142859:01, Andrographolide], the “Inh (PKA)” value [2, 6] is reported as 1.527%.

For COc1ccc([C@@H]2CC(=O)c3c(O)cc(O)cc3O2)cc1O [UM0142860:01, Hesperitin], the “Inh (PKA)” value [2, 6] was 3.061%.

For CCc1c2c(nc3ccc(O)cc13)-c1cc3c(c(=O)n1C2)COC(=O)[C@]3(O)CC [UM0142861:01, 7-Ethyl-10-hydroxycamptothecin], the “Inh (PKA)” value [2, 6] was 8.347%.

In the case of COC1=C[C@@H]2[C@@H]3Cc4ccc(OC)c(O)c4[C@]2(CCN3C)CC1=O [UM0142862:01, Sinomenine Hydrochloride], the “Inh (PKA)” value [2] is reported as 0.8653%.

For O=c1cc(-c2ccc(O)c(-c3c(O)cc(O)c4c(=O)cc(-c5ccc(O)cc5)oc34)c2)oc2cc(O)cc(O)c12 [UM0142863:01, Amentoflavone], the “Inh (PKA)” value [2, 6] was 47.02%.

In the case of CCCC[N+]1(C)[C@@H]2C[C@@H](OC(=O)[C@H](CO)c3ccccc3)C[C@H]1[C@@H]1O[C@@H]12 (stereo partly drawn) [UM0142864:01, Scopolamine butylbromide], the “Inh (PKA)” value [2, 6] is reported as 0.502%.

In the case of Nc1ncnc2c1ncn2[C@@H]1O[C@H](CO)C[C@H]1O [UM0142866:01, Cordycepin], the “Inh (PKA)” value [2, 6] is reported as -8.119%.

For Nc1ccccc1NC(=O)CCCCCCC(=O)Nc1ccccc1 [UM0142867:01, BML-210(CAY10433)], the “Inh (PKA)” value [2, 6] was 8.004%.

In the case of Fc1ccc(C(c2ccc(F)cc2)N2CCN(C/C=C/c3ccccc3)CC2)cc1 [flunarizine], the “Inh (PKA)” value [2, 6] is reported as 10.34%.

With C=C1C(=O)[C@]23[C@H](O)[C@H]1CC[C@H]2[C@@]12CO[C@]3(O)[C@@H](O)[C@@H]1C(C)(C)CC[C@@H]2O [oridonin] the “Inh (PKA)” value [2, 6] was 14.12%.

“QVPSRPNRAP [UM0141376:01, Dynamin inhibitory peptide]” was tested, and the “Inh (PKA)” value [2, 6] was 1.092%.

With “VPMLK [UM0141837:01, Bax inhibitor peptide V5]” the “Inh (PKA)” value [2, 6] was -2.196%.
